# Test results as given in ChEMBL document CHEMBL1201862, “PubChem BioAssay data set” (2004).
# Values joined by “and” are separate entries in the source; they are usually repeats but may differ in a detail not shown here. Identical values can stand only once. Active and inactive are the calls of the source.
# Experiments:
# [1] = biological target: Induced myeloid leukemia cell differentiation protein Mcl-1 (Homo sapiens, UniProt Q07820); assay type: functional
# [2] = biological target: T1, Mannose-6-phosphate isomerase (Homo sapiens, UniProt P34949); assay: human PMI inhibitors, high substrate, primary screen, biochemical, fluorescence intensity, high mannose 6-phosphate (AID 1220)
# T1 sequence (P34949 whole entry): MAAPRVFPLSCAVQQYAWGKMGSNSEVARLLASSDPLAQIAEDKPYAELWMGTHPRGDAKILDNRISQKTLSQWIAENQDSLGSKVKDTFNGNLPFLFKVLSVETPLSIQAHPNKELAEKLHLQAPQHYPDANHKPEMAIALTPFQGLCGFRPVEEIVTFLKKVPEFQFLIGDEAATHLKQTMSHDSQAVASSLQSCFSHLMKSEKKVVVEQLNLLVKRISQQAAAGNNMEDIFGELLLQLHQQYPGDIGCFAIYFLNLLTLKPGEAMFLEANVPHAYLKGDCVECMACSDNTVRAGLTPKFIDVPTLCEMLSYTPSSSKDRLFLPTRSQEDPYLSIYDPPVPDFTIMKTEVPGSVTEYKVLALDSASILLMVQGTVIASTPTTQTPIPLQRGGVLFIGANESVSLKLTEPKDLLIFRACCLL
# [3] = biological target: DNA dC->dU-editing enzyme APOBEC-3A (Homo sapiens, UniProt P31941); assay: APOBEC3A DNA deaminase inhibitors, dose response, biochemical (AID 504722); assay type: functional
# Sequence of DNA dC->dU-editing enzyme APOBEC-3A (P31941 whole entry): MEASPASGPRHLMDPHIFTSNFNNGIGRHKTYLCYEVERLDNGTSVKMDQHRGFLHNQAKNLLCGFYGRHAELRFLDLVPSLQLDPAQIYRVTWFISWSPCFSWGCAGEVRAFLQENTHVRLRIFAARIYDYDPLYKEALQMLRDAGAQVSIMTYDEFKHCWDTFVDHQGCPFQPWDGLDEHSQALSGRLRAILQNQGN
# [4] = biological target: Glucose-6-phosphate 1-dehydrogenase (Homo sapiens, UniProt P11413); assay: human G6PD enzyme inhibitors, dose response, selectivity assay for P. falciparum G6PD inhibitor project, biochemical, fluorescence (AID 504792); assay type: functional
# Sequence of Glucose-6-phosphate 1-dehydrogenase (P11413 whole entry): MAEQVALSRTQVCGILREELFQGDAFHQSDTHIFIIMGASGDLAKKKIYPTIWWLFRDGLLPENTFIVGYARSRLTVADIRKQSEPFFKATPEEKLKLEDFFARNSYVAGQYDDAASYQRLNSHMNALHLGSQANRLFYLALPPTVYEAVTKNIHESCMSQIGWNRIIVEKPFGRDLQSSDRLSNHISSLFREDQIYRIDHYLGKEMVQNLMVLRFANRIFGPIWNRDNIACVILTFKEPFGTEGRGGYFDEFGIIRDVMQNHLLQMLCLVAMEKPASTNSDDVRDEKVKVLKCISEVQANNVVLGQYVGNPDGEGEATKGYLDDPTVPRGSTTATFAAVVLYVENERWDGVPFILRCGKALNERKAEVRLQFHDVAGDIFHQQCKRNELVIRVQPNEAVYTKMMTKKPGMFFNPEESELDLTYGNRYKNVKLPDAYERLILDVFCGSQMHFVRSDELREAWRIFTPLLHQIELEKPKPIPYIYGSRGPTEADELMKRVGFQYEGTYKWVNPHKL
# [5] = biological target: DNA dC->dU-editing enzyme APOBEC-3G (Homo sapiens, UniProt Q9HC16); assay: Dose Response confirmation of small molecule APOBEC3G DNA Deaminase Inhibitors via a fluorescence-based single-stranded DNA deaminase assay. [Related pubchem assays (depositor defined):AID493012, AID493028]; assay type: functional
# Sequence of DNA dC->dU-editing enzyme APOBEC-3G (Q9HC16 whole entry): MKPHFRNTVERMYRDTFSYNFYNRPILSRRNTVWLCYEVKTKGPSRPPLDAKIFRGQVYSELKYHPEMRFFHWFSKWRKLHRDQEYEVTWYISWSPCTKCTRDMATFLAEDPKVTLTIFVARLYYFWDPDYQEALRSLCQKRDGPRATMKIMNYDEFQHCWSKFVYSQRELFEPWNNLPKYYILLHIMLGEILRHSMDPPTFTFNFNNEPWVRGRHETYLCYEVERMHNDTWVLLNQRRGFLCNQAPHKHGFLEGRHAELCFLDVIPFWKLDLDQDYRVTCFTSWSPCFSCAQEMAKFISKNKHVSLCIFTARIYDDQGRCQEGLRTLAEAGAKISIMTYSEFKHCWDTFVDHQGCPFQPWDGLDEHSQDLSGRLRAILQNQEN
# Hexokinase HKDC1 = biological target: T2, Hexokinase HKDC1 (Homo sapiens, UniProt Q2TB90); assay: HKDC1 hexokinase inhibitors, dose response, biochemical, W721R variant (AID 504729); assay type: functional
# T2 sequence (Q2TB90 whole entry): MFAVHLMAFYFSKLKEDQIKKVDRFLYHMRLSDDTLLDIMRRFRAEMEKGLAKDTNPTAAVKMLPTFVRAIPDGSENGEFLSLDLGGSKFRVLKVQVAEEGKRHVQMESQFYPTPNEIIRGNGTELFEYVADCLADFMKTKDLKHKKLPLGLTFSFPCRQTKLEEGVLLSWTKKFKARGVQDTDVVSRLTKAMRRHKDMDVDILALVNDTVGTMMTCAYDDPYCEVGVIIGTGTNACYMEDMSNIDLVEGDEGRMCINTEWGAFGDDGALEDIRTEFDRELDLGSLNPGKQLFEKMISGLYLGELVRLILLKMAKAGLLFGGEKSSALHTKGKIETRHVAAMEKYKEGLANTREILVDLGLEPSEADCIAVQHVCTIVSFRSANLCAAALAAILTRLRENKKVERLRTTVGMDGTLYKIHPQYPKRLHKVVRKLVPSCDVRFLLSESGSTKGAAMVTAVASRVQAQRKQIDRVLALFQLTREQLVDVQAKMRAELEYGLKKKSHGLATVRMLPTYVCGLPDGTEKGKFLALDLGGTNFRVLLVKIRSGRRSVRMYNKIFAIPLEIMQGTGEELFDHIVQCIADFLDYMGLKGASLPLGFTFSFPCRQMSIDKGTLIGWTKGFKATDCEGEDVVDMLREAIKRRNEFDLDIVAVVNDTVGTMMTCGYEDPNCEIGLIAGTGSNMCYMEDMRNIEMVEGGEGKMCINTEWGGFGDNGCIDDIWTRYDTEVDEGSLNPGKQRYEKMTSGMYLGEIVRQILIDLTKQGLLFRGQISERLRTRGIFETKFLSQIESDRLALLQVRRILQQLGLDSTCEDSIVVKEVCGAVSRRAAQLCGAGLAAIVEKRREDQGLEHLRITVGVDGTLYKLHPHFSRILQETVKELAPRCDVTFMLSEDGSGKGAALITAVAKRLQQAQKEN
# [6] = biological target: DNA damage-inducible transcript 3 protein (Mus musculus, UniProt P35639); assay type: functional, Cricetulus griseus
# Sequence of DNA damage-inducible transcript 3 protein (P35639 whole entry): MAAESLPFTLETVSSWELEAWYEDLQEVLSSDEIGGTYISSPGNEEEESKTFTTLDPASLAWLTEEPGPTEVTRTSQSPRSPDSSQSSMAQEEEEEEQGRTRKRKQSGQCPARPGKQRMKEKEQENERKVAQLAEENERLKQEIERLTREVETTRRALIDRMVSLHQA
# [7] = Shn3 3'UTR reporter inhibitors, dose response, cell-based, Clone20 osteoblasts, firefly luciferase, cherry-picked (AID 624132); assay type: functional;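 also: firefly luciferase luminescence from reporter carrying the Shn3 3'UTR in osteoblasts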
# [8] = HepG2 cell cytotoxicity, dose response, cytotoxicity control for Shn3 inhibitor project, CellTiter-Glo, cherry-picked (AID 624134); assay type: functional, cell-based
# [9] = control 3'UTR Renilla luciferase suppression, dose response, counter-screen for Shn3 inhibitor project, cell-based, Clone20-Shn3RL, cherry-picked (AID 624133); assay type: functional
# Paired box protein Pax-8 = Paired box protein Pax-8 (Homo sapiens, UniProt Q06710); assay: inhibitors of PAX8-driven TPO luciferase reporter, dose response, RMG-I cells, cherry-pick (AID 687027); assay type: functional, cell-based;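 also: luciferase reporter driven by Pax8 target thyroperoxidase promoter measured by SteadyGlo luminescence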
# Sequence of Paired box protein Pax-8 (Q06710 whole entry): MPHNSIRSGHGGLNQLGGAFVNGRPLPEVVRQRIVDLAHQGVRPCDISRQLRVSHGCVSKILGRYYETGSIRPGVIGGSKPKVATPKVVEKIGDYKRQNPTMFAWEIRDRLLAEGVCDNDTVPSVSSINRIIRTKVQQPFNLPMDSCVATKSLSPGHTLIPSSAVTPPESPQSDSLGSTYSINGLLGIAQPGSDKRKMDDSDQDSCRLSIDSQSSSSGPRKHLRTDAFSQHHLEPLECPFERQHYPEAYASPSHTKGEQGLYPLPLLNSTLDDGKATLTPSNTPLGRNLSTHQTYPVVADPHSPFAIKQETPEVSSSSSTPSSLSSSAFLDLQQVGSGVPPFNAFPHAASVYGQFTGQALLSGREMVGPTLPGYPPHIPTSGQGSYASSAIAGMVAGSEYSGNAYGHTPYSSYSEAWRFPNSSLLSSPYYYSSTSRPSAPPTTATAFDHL
# Caspase-6 = biological target: T3, Caspase-6 (Homo sapiens, UniProt P55212); assay: human caspase-6 inhibitors, dose response, biochemical, VEID-R110 fluorescence, cherry-pick (AID 720632)
# T3 sequence (P55212 whole entry): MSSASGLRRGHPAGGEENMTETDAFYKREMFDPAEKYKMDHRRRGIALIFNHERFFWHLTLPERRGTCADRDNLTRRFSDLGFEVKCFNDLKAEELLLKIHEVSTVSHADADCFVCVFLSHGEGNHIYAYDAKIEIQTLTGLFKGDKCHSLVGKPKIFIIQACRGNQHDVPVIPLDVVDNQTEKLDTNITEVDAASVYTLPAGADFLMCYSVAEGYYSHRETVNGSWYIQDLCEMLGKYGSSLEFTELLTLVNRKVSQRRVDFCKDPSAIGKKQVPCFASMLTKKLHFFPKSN
# [10] = inhibitors of PGC1a acetylation in cells, dose response, cell-based, cherry-picked samples (AID 720514); assay type: functional;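 also: potency may reflect raised or lowered acetylation signal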
# [11] = test system: Streptococcus sp. 'group A'; assay: growth inhibition of control SK(-) GAS strain, dose response, counter-screen for streptokinase expression inhibitor project, luminescence, kanamycin, BacTiterGlo, confirmation (AID 1900); assay type: functional, organism-based
# Beta-galactosidase = Beta-galactosidase (Escherichia coli, UniProt Q8VNN2); assay: PubChem AID 485352; assay type: functional
# Sequence of Beta-galactosidase (Q8VNN2 whole entry): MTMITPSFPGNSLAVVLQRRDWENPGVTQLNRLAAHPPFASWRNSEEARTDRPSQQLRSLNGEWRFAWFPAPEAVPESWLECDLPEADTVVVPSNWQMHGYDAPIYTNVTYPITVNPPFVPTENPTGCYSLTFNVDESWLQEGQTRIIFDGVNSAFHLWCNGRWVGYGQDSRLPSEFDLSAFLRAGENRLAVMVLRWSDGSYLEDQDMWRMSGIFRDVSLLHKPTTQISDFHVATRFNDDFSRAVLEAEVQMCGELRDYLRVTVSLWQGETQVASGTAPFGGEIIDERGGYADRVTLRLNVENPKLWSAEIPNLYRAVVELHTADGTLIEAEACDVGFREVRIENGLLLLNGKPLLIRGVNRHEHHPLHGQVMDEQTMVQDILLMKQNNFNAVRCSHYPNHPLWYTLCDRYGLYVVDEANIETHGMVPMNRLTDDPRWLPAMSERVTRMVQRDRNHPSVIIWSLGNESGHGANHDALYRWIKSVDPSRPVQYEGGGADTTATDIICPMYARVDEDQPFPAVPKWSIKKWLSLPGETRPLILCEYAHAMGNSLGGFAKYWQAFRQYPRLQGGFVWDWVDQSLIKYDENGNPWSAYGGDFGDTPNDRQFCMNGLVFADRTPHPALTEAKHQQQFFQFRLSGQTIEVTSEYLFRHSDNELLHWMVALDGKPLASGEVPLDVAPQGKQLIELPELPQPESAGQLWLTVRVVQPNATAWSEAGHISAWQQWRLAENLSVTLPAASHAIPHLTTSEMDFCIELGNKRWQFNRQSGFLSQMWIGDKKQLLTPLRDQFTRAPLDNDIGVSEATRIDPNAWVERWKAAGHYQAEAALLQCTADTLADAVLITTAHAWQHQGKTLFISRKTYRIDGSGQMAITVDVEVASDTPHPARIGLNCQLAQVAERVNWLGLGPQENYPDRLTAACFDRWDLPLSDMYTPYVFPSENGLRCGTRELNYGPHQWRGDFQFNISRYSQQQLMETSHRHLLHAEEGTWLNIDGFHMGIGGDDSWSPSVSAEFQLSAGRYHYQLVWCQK
# [12] = inhibitors of intracellular T. cruzi replication, confirmation, NIH3T3 host cells, beta-gal luminescence (AID 2044); assay type: functional, cell-based;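 also: intracellular parasites grown in NIH/3T3 mouse fibroblasts as host cells; luminescent beta-galactosidase reporter signal from transgenic T. cruzi replicating inside host cells; inhibitors lower the luminescence signal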
# [13] = biological target: T4, Type-1 angiotensin II receptor (Homo sapiens, UniProt P30556); assay: AT1 receptor antagonists, dose response, selectivity assay for APJ receptor antagonist project, cell-based, uHTS hits (AID 463214); assay type: functional;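 also: antagonist potency against angiotensin II stimulated AT1 response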
# T4 sequence (P30556 whole entry): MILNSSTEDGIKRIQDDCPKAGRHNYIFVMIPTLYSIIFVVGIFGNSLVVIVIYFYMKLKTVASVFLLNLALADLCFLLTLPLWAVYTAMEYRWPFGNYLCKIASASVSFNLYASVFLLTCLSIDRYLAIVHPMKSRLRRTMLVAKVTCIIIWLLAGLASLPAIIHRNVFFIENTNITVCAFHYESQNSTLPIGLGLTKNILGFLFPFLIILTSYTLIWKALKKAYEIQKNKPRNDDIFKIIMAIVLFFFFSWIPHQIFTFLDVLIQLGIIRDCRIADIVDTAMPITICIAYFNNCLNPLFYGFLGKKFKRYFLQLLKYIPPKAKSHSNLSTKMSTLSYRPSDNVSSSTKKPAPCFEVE
# [14] = cytotoxicity toward NIH3T3 fibroblasts, dose response, counter-screen, cell-based, ATP luminescence, mouse fibroblasts (AID 2010); assay type: functional;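 also: cells exposed to compound for about 90 hours before reading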
# Streptococcus = assay: Group A Streptococcus viability loss, dose response, counter-screen for streptokinase expression inhibitor project, luminescence, BacTiterGlo (AID 1915); assay type: functional, organism-based;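 also: potency for reduction of bacterial viability or growth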
# [15] = THP-1 cell cytotoxicity, dose response, cytotoxicity control for non-replicating M. tuberculosis project (AID 489025); assay type: functional
# [16] = HepG2 cell cytotoxicity, dose response, cytotoxicity control for non-replicating M. tuberculosis project (AID 489018); assay type: functional; details: Mycobacterium tuberculosis
# [17] = Vero E6 cell cytotoxicity, dose response, cytotoxicity control for non-replicating M. tuberculosis project, secondary assay (AID 492998); assay type: functional, VeroE6; details: Vero C1008
# cells = assay type: functional
# [18] = biological target: T5, Aryl hydrocarbon receptor (Homo sapiens, UniProt P35869); assay: Luminescence-based cell-based high throughput dose response assay for activators of the Aryl Hydrocarbon Receptor (AHR). [Related pubchem assays: 2796 (Primary screen (AHR activators in singlicate)), 2845 (Confirmation screen (AHR activators in triplicate)), 434939 (Counterscreen (PXR activators in triplicate)), 2804 (Summary (AHR activators))]; assay type: ADME
# T5 sequence (P35869 whole entry): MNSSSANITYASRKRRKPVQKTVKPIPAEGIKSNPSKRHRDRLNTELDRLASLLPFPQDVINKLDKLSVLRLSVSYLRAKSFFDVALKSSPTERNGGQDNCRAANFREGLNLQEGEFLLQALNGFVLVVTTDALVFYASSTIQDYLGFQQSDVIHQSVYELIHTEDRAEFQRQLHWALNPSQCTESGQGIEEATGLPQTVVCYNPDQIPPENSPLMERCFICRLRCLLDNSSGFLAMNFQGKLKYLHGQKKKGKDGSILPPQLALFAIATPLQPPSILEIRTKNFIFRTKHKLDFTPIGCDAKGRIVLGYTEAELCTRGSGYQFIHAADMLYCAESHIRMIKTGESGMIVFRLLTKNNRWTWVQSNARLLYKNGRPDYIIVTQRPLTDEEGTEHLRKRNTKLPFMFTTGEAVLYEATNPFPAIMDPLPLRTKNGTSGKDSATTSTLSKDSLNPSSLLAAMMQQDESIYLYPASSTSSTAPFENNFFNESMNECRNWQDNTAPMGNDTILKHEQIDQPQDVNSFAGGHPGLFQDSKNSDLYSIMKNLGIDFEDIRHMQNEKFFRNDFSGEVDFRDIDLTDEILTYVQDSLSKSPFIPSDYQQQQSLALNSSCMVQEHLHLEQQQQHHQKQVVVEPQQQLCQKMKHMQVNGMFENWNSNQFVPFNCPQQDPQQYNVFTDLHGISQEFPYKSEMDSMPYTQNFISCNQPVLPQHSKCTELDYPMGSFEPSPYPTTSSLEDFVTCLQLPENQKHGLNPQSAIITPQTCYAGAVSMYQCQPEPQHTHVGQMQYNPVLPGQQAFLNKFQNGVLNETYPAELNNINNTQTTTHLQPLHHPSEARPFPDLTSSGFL
# Trypsin = Trypsin (Sus scrofa, UniProt P00761); assay: porcine trypsin inhibitors, dose response, selectivity assay for Rce1 protease inhibitor project, biochemical, quenched peptide fluorescence, cherry-pick (AID 488789)
# Sequence of Trypsin (P00761 whole entry): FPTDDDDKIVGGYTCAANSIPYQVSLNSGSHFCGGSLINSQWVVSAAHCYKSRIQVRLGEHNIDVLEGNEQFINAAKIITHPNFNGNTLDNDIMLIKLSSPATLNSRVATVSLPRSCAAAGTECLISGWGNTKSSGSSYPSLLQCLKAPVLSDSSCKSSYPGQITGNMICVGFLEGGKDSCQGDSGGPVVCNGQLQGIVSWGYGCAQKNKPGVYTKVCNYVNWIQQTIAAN
# CAAX prenyl protease 2 = biological target: T6, CAAX prenyl protease 2 (Saccharomyces cerevisiae S288c, UniProt Q03530); assay type: biochemical
# T6 sequence (Q03530 whole entry): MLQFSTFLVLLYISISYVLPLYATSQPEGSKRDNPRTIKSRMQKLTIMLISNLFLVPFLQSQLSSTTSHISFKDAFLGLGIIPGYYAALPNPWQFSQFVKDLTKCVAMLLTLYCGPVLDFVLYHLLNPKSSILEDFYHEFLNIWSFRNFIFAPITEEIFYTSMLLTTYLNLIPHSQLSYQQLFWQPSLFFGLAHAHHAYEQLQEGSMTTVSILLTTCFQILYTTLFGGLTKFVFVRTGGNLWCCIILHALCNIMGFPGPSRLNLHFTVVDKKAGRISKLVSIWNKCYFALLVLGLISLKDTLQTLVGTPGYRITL
# Bcl-2-related protein A1 = biological target: T7, Bcl-2-related protein A1 (Mus musculus, UniProt Q07440); assay type: functional;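 also: confirmatory dose–response counterscreen on Bfl-1, used to check hits from a UBC13 polyubiquitin inhibitor campaign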
# T7 sequence (Q07440 whole entry): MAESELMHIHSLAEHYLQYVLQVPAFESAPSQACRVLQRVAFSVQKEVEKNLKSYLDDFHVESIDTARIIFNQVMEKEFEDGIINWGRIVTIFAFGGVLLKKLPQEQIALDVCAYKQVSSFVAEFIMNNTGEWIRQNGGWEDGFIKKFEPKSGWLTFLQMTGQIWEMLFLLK
# [19] = biological target: T8, Ubiquitin-conjugating enzyme E2 N (Homo sapiens, UniProt P61088); assay type: functional
# T8 sequence (P61088 whole entry): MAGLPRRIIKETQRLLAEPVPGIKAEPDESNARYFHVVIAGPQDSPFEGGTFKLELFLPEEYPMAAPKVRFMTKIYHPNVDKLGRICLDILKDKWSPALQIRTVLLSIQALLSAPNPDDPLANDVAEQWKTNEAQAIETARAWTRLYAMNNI
# [20] = biological target: T8, Ubiquitin-conjugating enzyme E2 N; assay type: functional; remark: listed apart in the source
# Sequence of Induced myeloid leukemia cell differentiation protein Mcl-1 (Q07820 whole entry): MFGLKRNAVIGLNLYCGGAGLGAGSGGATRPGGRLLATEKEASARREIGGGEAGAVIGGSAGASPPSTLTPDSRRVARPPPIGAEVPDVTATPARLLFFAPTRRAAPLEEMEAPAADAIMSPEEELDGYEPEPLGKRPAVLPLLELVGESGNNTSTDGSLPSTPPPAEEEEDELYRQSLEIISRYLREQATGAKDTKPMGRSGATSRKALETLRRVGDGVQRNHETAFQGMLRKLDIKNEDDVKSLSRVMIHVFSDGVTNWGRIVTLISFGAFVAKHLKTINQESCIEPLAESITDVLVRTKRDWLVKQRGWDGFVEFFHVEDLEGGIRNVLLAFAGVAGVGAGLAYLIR
smiles,measurement,setting,value
O=S(=O)(Nc1cc(Sc2nc[nH]n2)c(O)c2ccccc12)c1ccccc1,IC50,[1],11.7 µM (active)
same,IC50,[2],3.32 µM (active)
same,IC50,[3],> 100 µM (inactive)
same,IC50,[4],21.1 µM (inactive)
same,IC50,[5],3.16 µM (active)
same,IC50,Hexokinase HKDC1,9.93 µM (active)
same,Absolute IC50 (CHOP),[6],10 µM
same,AC50,[7],7.55 µM (active)
same,AC50,[8],26.1 µM (active)
same,AC50,[9],12.4 µM (active)
same,AC50,Paired box protein Pax-8,9.52 µM (active)
same,AC50,Caspase-6,0.911 µM (active)
same,AC50,[10],9.88 µM (active)
N=C1S/C(=C\c2ccco2)C(=O)N1c1nccs1,EC50,[11],3.66 µM (active)
same,EC50,Beta-galactosidase,> 40 µM (inactive)
same,EC50,[12],2.11 µM (active)
same,IC50,[13],7.86 µM (active)
same,EC50,[14],> 30 µM (not active)
same,EC50,Streptococcus,9.61 µM (active)
same,CC50,[15],15.7 µM (active)
same,CC50,[16],> 20 µM (active)
same,CC50,[17],9.33 µM (active)
same,IC50,cells,0.2 µM (active)
CCOC(=O)Cc1cc(-c2ccc(O)cc2)nc2ccc3ccccc3c12,EC50,[18],1.47 µM (active)
same,Absolute IC50 (CHOP),[6],10 µM
c1ccc(-n2nnnc2SCc2cn3cccnc3n2)cc1,AC50,Trypsin,18.6 µM (active)
same,AC50,CAAX prenyl protease 2,10.5 µM (active)
C[C@@H]1O[C@@H](O[C@H]2[C@H](Oc3cc(O)c4c(c3)O[C@H](c3ccc(O)cc3)CC4=O)O[C@H](CO)[C@@H](O)[C@@H]2O)[C@H](O)[C@H](O)[C@H]1O [NARINGIN],IC50,Bcl-2-related protein A1,> 20 µM (inactive)
same,IC50,[19],12.2 µM (active) and 8.7 µM (active)
same,IC50,[20],5.77 µM (active) and 6.66 µM (active)
